{"source": "patent US7700621B2", "about": "“6-alkenyl-, 6-alkinyl- and 6-epoxy-epothilone derivatives, process for their production, and their use in pharmaceutical preparations” (Bayer Schering Pharma Aktiengesellschaft, priority 1999, dated 2010)", "system": "multi-drug-resistant NCl/ADR-carcinoma cell line", "test": "Growth inhibition of multi-drug-resistant NCl/ADR carcinoma cell line, crystal-violet assay", "type": "cell-based, human", "details": "for Selectivity = IC50 (NCl/ADR) : IC50 (MCF-7): ratio of IC50 NCl/ADR to IC50 MCF-7", "from_the_text": "In Vitro Activity of Epothilone Derivatives on Human Tumor Cell Lines\na) IC50 values [nM] for the growth inhibition of human MCF-7-breast and multi-drug-resistant NCl/ADR-carcinoma cell lines of epothilone derivatives with 13Z-unsaturated in the crystal-violet assay in comparison to Taxol.\nb) IC50 values [nM] for the growth inhibition of human MCF-7-breast- and multi-drug-resistant NCl/ADR carcinoma cell lines of epothilone derivative with 13,14-α-epoxide, which was formed from the 13-Z-configured double bond in the crystal-violet assay in comparison to Taxol.\nc) IC50 values [nM] for the growth inhibition of human MCF-7-breast- and multi-drug-resistant NCl/ADR-carcinoma cell lines of epothilone derivatives with 13,14-epoxide, which was formed from the 13-E-configured double bond, in a crystal-violet assay in comparison to Taxol."}
{"smiles": "C#CCC[C@H]1C(=O)C(C)(C)[C@@H](O)CC(=O)O[C@H](/C(C)=C/c2ccccn2)C/C=C(/C)CCC[C@H](C)[C@@H]1O", "note": "[Example 1, (4S,7R,8S,9S,13Z,16S(E))-4,8-Dihydroxy-16-(1-methyl-2-(2-pyridyl)ethenyl)-1-oxa-5,9,13-tetramethyl-7-(but-3-in-1-yl)-cyclohexadec-13-ene-2,6-dione]", "values": [{"measurement": "Selectivity = IC50 (NCl/ADR) : IC50 (MCF-7)", "result": 2.5}]}
{"smiles": "C=CCC[C@H]1C(=O)C(C)(C)[C@@H](O)CC(=O)O[C@H](/C(C)=C/c2ccccn2)C/C=C(/C)CCC[C@H](C)[C@@H]1O", "note": "[Example 2, (4S,7R,8S,9S,13Z,16S(E))-4,8-Dihydroxy-16-(1-methyl-2-(2-pyridyl)ethenyl)-1-oxa-5,5,9,13-tetramethyl-7-(but-3-en-1-yl)-cyclohexadec-13-ene-2,6-dione]", "values": [{"measurement": "Selectivity = IC50 (NCl/ADR) : IC50 (MCF-7)", "result": 2.8}]}
{"smiles": "C#CCC[C@H]1C(=O)C(C)(C)[C@@H](O)CC(=O)O[C@H](/C(C)=C/c2ccccn2)C[C@@H]2O[C@]2(C)CCC[C@H](C)[C@@H]1O", "note": "[Example 4A, (1S,3S(E),7S,10R,11S,12S,16R)-7,11-Dihydroxy-10-(but-3-in-1-yl)-3-(1-methyl-2-(2-pyridyl)ethenyl)-8,8,12,16-tetramethyl-4,17-dioxabicyclo[14.1.0]heptadecane-5,9-dione]", "values": [{"measurement": "Selectivity = IC50 (NCl/ADR) : IC50 (MCF-7)", "result": 7.0}]}
{"smiles": "C=CCC[C@H]1C(=O)C(C)(C)[C@@H](O)CC(=O)O[C@H](/C(C)=C/c2ccccn2)C[C@@H]2O[C@]2(C)CCC[C@H](C)[C@@H]1O", "note": "[Example 5A, (1S,3S(E),7S,10R,11S,12S,16R)-7,11-Dihydroxy-10-(but-3-en-1-yl)-3-(1-methyl-2-(2-pyridyl)ethenyl)-8,8,12,16-tetramethyl-4,17-dioxabicyclo[14.1.0]heptadecane-5,9-dione]", "values": [{"measurement": "Selectivity = IC50 (NCl/ADR) : IC50 (MCF-7)", "result": 1.2}]}
{"smiles": "C=CC[C@H]1C(=O)C(C)(C)[C@@H](O)CC(=O)O[C@H](/C(C)=C/c2csc(C)n2)C/C=C(/C)CCC[C@H](C)[C@@H]1O", "note": "[Example 9, (4S,7R,8S,9S,13Z,16S(E))-4,8-Dihydroxy-16-(1-methyl-2-(2-methylthiazol-4-yl)ethenyl)-1-oxa-5,5,9,13-tetramethyl-7-(prop-2-en-1-yl)-cyclohexadec-13-ene-2,6-dione]", "values": [{"measurement": "Selectivity = IC50 (NCl/ADR) : IC50 (MCF-7)", "result": 2.4}]}
{"smiles": "C=CC[C@H]1C(=O)C(C)(C)[C@@H](O)CC(=O)O[C@H](/C(C)=C/c2csc(C)n2)C[C@@H]2O[C@]2(C)CCC[C@H](C)[C@@H]1O", "note": "[Example 10A, (1S,3S(E),7S,10R,11S,12S,16R)-7,11-Dihydroxy-10-(prop-2-en-1-yl)-3-(1-methyl-2-(2-methylthiazol-4-yl)ethenyl)-8,8,12,16-tetramethyl-4,17-dioxabicyclo[14.1.0]heptadecane-5,9-dione]", "values": [{"measurement": "Selectivity = IC50 (NCl/ADR) : IC50 (MCF-7)", "result": 3.0}]}
{"smiles": "C=CC[C@H]1C(=O)C(C)(C)[C@@H](O)CC(=O)O[C@H](/C(C)=C/c2csc(C)n2)C[C@H]2O[C@]2(C)CCC[C@H](C)[C@@H]1O", "note": "[Example 12A or B]", "values": [{"measurement": "Selectivity = IC50 (NCl/ADR) : IC50 (MCF-7)", "result": 1.5}]}
{"smiles": "C#CC[C@H]1C(=O)C(C)(C)[C@@H](O)CC(=O)O[C@H](/C(F)=C/c2csc(C)n2)C/C=C(/C)CCC[C@H](C)[C@@H]1O", "note": "[Example 23, (4S,7R,8S,9S,13Z,16S(Z))-4,8-Dihydroxy-16-(1-fluoro-2-(2-methylthiazol-4-yl)ethenyl)-7-(prop-2-in-1-yl)-1-oxa-5,5,9,13-tetramethyl-cyclohexadec-13-ene-2,6-dione]", "values": [{"measurement": "Selectivity = IC50 (NCl/ADR) : IC50 (MCF-7)", "result": 5.6}]}
{"smiles": "C#CC[C@H]1C(=O)C(C)(C)[C@@H](O)CC(=O)O[C@H](/C(F)=C/c2csc(C)n2)C[C@@H]2O[C@]2(C)CCC[C@H](C)[C@@H]1O", "note": "[Example 25, (1S,3S(Z),7S,10R,11S,12S,16R)-7,11-Dihydroxy-3-(1-fluoro-2-(2-methyl-4-thiazolyl)ethenyl)-10-(prop-2-in-1-yl)-8,8,12,16-tetramethyl-4,17-dioxabicyclo[14.1.0]heptadecane-5,9-dione]", "values": [{"measurement": "Selectivity = IC50 (NCl/ADR) : IC50 (MCF-7)", "result": 4.8}]}
{"smiles": "C#CC[C@H]1C(=O)C(C)(C)[C@@H](O)CC(=O)O[C@H](/C(F)=C/c2csc(C)n2)C[C@@H]2O[C@@]2(C)CCC[C@H](C)[C@@H]1O", "note": "[Example 26A or B]", "values": [{"measurement": "Selectivity = IC50 (NCl/ADR) : IC50 (MCF-7)", "result": 3.3}]}
{"smiles": "C#CC[C@H]1C(=O)C(C)(C)[C@@H](O)CC(=O)O[C@H](/C(F)=C/c2coc(C)n2)C/C=C(/C)CCC[C@H](C)[C@@H]1O", "note": "[Example 27, (4S,7R,8S,9S,13Z,16S(Z))-4,8-Dihydroxy-16-(1-fluoro-2-(2-methyloxazol-4-yl)ethenyl)-7-(prop-2-in-1-yl)-1-oxa-5,5,9,13-tetramethyl-cyclohexadec-13-ene-2,6-dione]", "values": [{"measurement": "Selectivity = IC50 (NCl/ADR) : IC50 (MCF-7)", "result": 1.6}]}
{"smiles": "CC(=O)O[C@H]1C(=O)[C@@]2(C)[C@H]([C@H](OC(=O)c3ccccc3)[C@]3(O)C[C@H](OC(=O)[C@H](O)[C@@H](NC(=O)c4ccccc4)c4ccccc4)C(C)=C1C3(C)C)[C@]1(OC(C)=O)CO[C@@H]1C[C@@H]2O", "note": "[Taxol, reference compound]", "values": [{"measurement": "action on the multi-drug-resistant cell line NCl/ADR", "setting": "statement in words, compared with Taxol", "result": "not exhibited"}]}
